The results in this text go back to ChEMBL document CHEMBL1201862, “PubChem BioAssay data set” (2004).

Some test systems named below: OVCAR-4; M14; RPMI-8226; SW-620; SNB-19; HOP-62; OVCAR-5; LOX IMVI; Malme-3M; HCT-15; UO-31; CAKI-1; OVCAR-8; CCRF-CEM; UACC-62; MOLT-4; SK-MEL-2; KM12; NCI/ADR-RES; NCI-H23.
What all share (experiment): NCI tumour cell line growth inhibition, 48 h

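Each compound was tested at five concentrations against cells in 96-well plates for 48 hours. GI50: concentration for 50% inhibition of growth.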 The source made the active and inactive calls. Rule as the data show it: active = GI50 up to about 1.1 µM and inactive = higher. Bounds are passed on as bounds.

Regarding `Cn1c(=O)n(CC2CS2)c2ccccc21` (configuration not stated), the GI50 with OVCAR-4, in the test on M14, with RPMI-8226, in the test on SW-620, in the test on SNB-19 and in the test with HOP-62 was > 100 µM (inactive) throughout. The GI50 with OVCAR-5 was > 100 µM (inactive); in the test with LOX IMVI, > 100 µM (inactive); in the test on Malme-3M, > 100 µM (inactive); in the test on HCT-15 it was above 100 µM; with UO-31, > 100 µM (inactive); in the test with CAKI-1 it was 44.5 µM (inactive). The GI50 with OVCAR-8 is > 10 µM (inactive); in the test on CCRF-CEM it was 70 µM (inactive); with UACC-62 it was > 100 µM (inactive); with MOLT-4 it was 88.1 µM (inactive); in the test with SK-MEL-2, > 100 µM (inactive); with KM12, > 100 µM (inactive).
Regarding `CC(C)(C)[Si](C)(C)OCC1OC(n2cnc3c(N)ncnc32)C2OC(=S)OC12` (configuration not stated), the GI50 in the test on OVCAR-4 is 81.3 µM (inactive); in the test on M14, 45.5 µM (inactive); with RPMI-8226, 37.9 µM (inactive); in the test with NCI/ADR-RES it was 23.5 µM (inactive); with SW-620, 32.7 µM (inactive); with SNB-19, 52.1 µM (inactive). Also, the GI50 in the test with HOP-62 was 36.7 µM (inactive); in the test on NCI-H23 it was 21.8 µM (inactive); in the test on OVCAR-5, 26.7 µM (inactive); with LOX IMVI, 28.7 µM (inactive); in the test on Malme-3M it was 23.6 µM (inactive); in the test with HCT-15 it was 26.2 µM. Moreover, the GI50 is 23.5 µM (inactive) in the test with UO-31; 41.3 µM (inactive) in the test on CAKI-1; 35.1 µM (inactive) in the test with OVCAR-8; 12.7 µM (inactive) with CCRF-CEM; 23.8 µM (inactive) in the test with UACC-62; 16.1 µM (inactive) in the test on MOLT-4. Moreover, the GI50 in the test on SK-MEL-2 was 26 µM (inactive); in the test with KM12 it was 35 µM (inactive).
In the case of `CC(C(=O)O)c1ccc(-n2nnc3c(=O)[nH][nH]c(=O)c32)cc1` (configuration not stated), the GI50 in the test on OVCAR-4, in the test with M14, in the test with RPMI-8226, in the test with NCI/ADR-RES, in the test with SNB-19 and in the test with HOP-62 was > 100 µM (inactive) throughout. Besides, the GI50 in the test with NCI-H23 is > 100 µM (inactive); in the test with OVCAR-5 it was > 100 µM (inactive); in the test on LOX IMVI, > 100 µM (inactive); in the test with Malme-3M, > 100 µM (inactive); in the test with HCT-15, above 100 µM; in the test on UO-31, > 100 µM (inactive). Further, the GI50 in the test on CAKI-1, in the test on OVCAR-8, with CCRF-CEM, in the test with MOLT-4, in the test on SK-MEL-2 and with KM12 was > 100 µM (inactive) in each case.
Regarding `CN1Cc2cc(O)c(O)cc2C(O)C1` (configuration not stated), the GI50 with OVCAR-4, in the test with M14, with RPMI-8226, with NCI/ADR-RES, in the test on SW-620 and in the test on SNB-19 was > 100 µM (inactive) throughout. In addition, the GI50 was > 100 µM (inactive) in the test on HOP-62; > 100 µM (inactive) in the test on NCI-H23; > 100 µM (inactive) in the test with OVCAR-5; 69.2 µM (inactive) in the test with LOX IMVI; > 100 µM (inactive) in the test on Malme-3M; 83 µM (inactive) in the test with UO-31. In addition, the GI50 was > 100 µM (inactive) in the test with CAKI-1; > 100 µM (inactive) in the test on OVCAR-8; 34.8 µM (inactive) in the test on CCRF-CEM; > 100 µM (inactive) in the test with UACC-62; > 100 µM (inactive) with MOLT-4; > 100 µM (inactive) in the test with SK-MEL-2. For the same compound, the GI50 in the test on KM12 is > 100 µM (inactive).
As to `O=C1CC(/C=C/c2ccco2)=C(O)C1=O`, the GI50 is 14.2 µM (inactive) in the test on OVCAR-4; 14.8 µM (inactive) in the test with M14; 13.2 µM (inactive) with RPMI-8226; 24.2 µM (inactive) in the test with NCI/ADR-RES; 10.2 µM (inactive) with SW-620; 14.8 µM (inactive) in the test with SNB-19. In addition, the GI50 with HOP-62 is 1.84 µM (inactive); with NCI-H23, 11.6 µM (inactive); in the test on OVCAR-5 it was 13.9 µM (inactive); in the test with LOX IMVI, 12.8 µM (inactive); with Malme-3M it was 11.6 µM (inactive); in the test on HCT-15, 13.5 µM. Moreover, the GI50 is 20.7 µM (inactive) with UO-31; 14.6 µM (inactive) in the test with CAKI-1; 13.8 µM (inactive) in the test on OVCAR-8; 3 µM (inactive) with CCRF-CEM; 15.3 µM (inactive) with UACC-62; 14 µM (inactive) in the test with MOLT-4. The results for the GI50 in the test with SK-MEL-2 and with KM12 were 16.4 µM (inactive) and 13.8 µM (inactive), respectively.
`COc1cc(C2C3=C(CCC3=O)Oc3cc4c(cc32)OCO4)cc(OC)c1OC` (configuration not stated): the GI50 is 10 µM (inactive) in the test on OVCAR-4; 0.349 µM (active) with M14; 0.285 µM (active) with SW-620; 0.692 µM (active) in the test with SNB-19; 0.0324 µM (active) in the test with HOP-62; 0.39 µM (active) in the test on NCI-H23. For the same compound, the GI50 was 0.458 µM (active) in the test with OVCAR-5; 0.491 µM (active) in the test on LOX IMVI; 1.44 µM (inactive) in the test with Malme-3M; 0.256 µM in the test on HCT-15; 0.321 µM (active) in the test on UO-31; 0.222 µM (active) with CAKI-1. For the same compound, the figures for the GI50 with OVCAR-8, in the test with CCRF-CEM and with UACC-62 were 0.596 µM (active), 0.318 µM (active) and 0.141 µM (active), respectively.
Take `CC(C)=CC(=O)OC1C2C(C)C(=O)OC2C(O)C(C)C2C=CC(=O)C21C` (configuration not stated): the GI50 in the test on OVCAR-4 is 3.13 µM (inactive); in the test on RPMI-8226, 1.48 µM (inactive); with NCI/ADR-RES it was 4.3 µM (inactive); in the test with SW-620 it was 1.68 µM (inactive); with SNB-19 it was 7.38 µM (inactive); in the test on HOP-62, 8.02 µM (inactive). Also, the GI50 with NCI-H23 is 2.71 µM (inactive); in the test with OVCAR-5 it was 7.83 µM (inactive); in the test on LOX IMVI, 0.918 µM (active); in the test with Malme-3M, 3.58 µM (inactive); in the test with HCT-15 it was 2 µM; in the test on UO-31, 6.03 µM (inactive). The GI50 is 3.24 µM (inactive) in the test with CAKI-1; 1.79 µM (inactive) in the test on OVCAR-8; 0.802 µM (active) with CCRF-CEM; 1.47 µM (inactive) with UACC-62; 1.23 µM (inactive) in the test with MOLT-4; 4.15 µM (inactive) with SK-MEL-2. In addition, the GI50 with KM12 is 4.03 µM (inactive).
As for `CN1OC(=O)N(C)C1c1ccccc1` (configuration not stated), the GI50 in the test on OVCAR-4, in the test on RPMI-8226, in the test on NCI/ADR-RES, in the test with SW-620, with SNB-19 and in the test with HOP-62 was > 100 µM (inactive) in each case. Also, the GI50 in the test on NCI-H23 is > 100 µM (inactive); in the test on OVCAR-5, > 100 µM (inactive); with LOX IMVI, > 100 µM (inactive); with Malme-3M, > 100 µM (inactive); in the test with HCT-15, above 100 µM; with UO-31, > 100 µM (inactive). For the same compound, the GI50 with OVCAR-8, in the test with CCRF-CEM, in the test on UACC-62, in the test on MOLT-4, in the test with SK-MEL-2 and in the test on KM12 was > 100 µM (inactive) throughout.
